Measured values reported in US9340510B2, “Tetrahydroisoquinoline derivatives, pharmaceutical compositions and uses thereof” (Boehringer Ingelheim International GmbH, priority 2014, dated 2016).

Molecular target: human ACC2 (Homo sapiens (Human), UniProt O00763)
Assay: ACC2 assay: spectrophotometric 384 well assay (coupled lactate dehydrogenase/pyruvate kinase)
Assay type: biochemical
Conditions: hACC2 construct lacking the 128 N-terminal amino acids, 25° C., 340 nm
Method in brief: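 N-terminally truncated human ACC2 from insect cells; ADP formation coupled via pyruvate kinase/lactate dehydrogenase, NADH loss read at 340 nm over 15 min at 25 °C, pH 7.5. Started with NADH, acetyl-CoA and 500 µM ATP; 1% DMSO. IC50 by nonlinear fit of background-subtracted slopes.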

human ACC2, sequence (O00763 129-2458): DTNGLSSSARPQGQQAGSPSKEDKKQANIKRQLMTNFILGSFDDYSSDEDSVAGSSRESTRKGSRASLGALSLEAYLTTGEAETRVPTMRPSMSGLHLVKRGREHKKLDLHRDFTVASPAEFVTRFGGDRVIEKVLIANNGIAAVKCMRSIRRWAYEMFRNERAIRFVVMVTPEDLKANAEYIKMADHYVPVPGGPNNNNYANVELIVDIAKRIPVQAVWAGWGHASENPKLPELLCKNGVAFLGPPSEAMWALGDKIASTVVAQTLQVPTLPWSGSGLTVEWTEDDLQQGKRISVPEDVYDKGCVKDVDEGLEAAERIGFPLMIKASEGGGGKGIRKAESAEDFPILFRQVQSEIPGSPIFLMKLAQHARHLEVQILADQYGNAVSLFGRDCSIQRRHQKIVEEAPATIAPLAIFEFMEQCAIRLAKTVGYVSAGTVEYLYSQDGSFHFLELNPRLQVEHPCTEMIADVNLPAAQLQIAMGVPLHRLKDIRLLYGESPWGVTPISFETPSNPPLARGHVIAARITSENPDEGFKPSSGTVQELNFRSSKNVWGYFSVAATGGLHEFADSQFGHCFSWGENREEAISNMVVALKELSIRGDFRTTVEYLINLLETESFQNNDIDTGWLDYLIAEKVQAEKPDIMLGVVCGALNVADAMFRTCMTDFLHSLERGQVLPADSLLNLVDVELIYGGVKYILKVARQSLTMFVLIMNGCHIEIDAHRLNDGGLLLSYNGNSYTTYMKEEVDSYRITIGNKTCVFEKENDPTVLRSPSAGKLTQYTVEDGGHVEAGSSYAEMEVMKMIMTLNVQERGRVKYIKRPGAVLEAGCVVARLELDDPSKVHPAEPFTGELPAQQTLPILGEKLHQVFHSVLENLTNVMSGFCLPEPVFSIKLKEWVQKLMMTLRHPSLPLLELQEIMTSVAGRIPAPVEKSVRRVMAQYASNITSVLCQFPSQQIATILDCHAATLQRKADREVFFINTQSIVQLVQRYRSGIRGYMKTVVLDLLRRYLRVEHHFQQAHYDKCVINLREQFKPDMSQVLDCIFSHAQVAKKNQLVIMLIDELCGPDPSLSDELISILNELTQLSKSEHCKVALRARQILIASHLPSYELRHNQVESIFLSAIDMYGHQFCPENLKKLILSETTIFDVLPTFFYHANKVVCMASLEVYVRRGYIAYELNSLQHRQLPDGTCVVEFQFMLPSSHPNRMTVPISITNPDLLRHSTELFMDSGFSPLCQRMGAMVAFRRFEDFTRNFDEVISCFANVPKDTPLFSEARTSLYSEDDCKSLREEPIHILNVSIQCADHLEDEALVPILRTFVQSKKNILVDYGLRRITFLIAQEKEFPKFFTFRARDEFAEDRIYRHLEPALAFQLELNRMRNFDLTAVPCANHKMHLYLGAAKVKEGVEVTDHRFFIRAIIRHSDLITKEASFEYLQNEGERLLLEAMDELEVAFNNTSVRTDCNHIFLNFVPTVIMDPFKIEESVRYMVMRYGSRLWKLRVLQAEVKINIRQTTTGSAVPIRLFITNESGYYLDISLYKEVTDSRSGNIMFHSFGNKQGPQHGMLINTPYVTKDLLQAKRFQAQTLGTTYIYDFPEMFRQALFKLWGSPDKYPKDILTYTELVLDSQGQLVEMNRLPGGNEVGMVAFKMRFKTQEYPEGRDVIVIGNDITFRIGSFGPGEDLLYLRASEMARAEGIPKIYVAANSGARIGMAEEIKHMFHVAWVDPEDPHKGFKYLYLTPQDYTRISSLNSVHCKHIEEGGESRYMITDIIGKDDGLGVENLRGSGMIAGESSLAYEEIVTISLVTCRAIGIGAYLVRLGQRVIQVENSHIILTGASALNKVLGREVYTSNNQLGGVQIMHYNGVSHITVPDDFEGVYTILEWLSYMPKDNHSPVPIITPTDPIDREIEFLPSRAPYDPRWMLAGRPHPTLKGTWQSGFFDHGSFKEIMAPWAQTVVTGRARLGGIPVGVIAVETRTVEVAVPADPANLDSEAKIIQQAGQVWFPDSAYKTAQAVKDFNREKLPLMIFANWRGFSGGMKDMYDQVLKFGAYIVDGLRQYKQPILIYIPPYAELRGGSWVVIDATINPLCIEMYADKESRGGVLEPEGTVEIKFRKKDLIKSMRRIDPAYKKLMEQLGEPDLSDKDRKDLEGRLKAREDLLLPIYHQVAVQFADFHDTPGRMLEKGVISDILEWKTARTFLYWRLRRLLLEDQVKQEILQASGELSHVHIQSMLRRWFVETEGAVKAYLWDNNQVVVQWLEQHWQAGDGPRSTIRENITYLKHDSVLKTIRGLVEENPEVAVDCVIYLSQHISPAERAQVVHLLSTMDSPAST

`C[C@H](NC(=O)c1cncs1)c1ccc(CN2Cc3ccc(OCC4CC4)cc3C(F)C2)cc1` (stereo partly shown) [Example 3.048] and `C[C@H](NC(=O)c1cn[nH]c1)c1ccc(CN2Cc3ccc(OCC4CC4)cc3C(F)C2)cc1` (stereo partly shown) [Example 3.064] are within 1.5-fold of each other in IC50: 59 nM for the first, 52 nM for the second.

`C[C@H](NC(=O)[C@H]1C[C@H](F)C1)c1ccc(CN2Cc3ccc(OCC4CC4)cc3C(O)C2)cc1` (stereo partly shown) [Example 3.049] and `COC(=O)N[C@@H](C)c1ccc(CN2Cc3ccc(OCC4CC4)cc3C(O)C2)cc1` (stereo partly shown) [Example 5.008] are within 1.5-fold of each other in IC50: 448 nM for the first, 369 nM for the second.

Compared with `C[C@H](NC(=O)[C@@H]1CC[C@H](NC(=O)OC(C)(C)C)C1)c1ccc(CN2Cc3ccc(OCC4CC4)cc3C(F)C2)cc1` (stereo partly shown) [Example 3.050], `COC(=O)N[C@@H](C)c1ccc(CN2Cc3ccc(OCC4CC4)cc3C(F)C2)cc1` (stereo partly shown) [Example 5.009] is 2.6-fold lower in IC50: 306 nM for the first, 116 nM for the second.

`C[C@H](NC(=O)CC#N)c1ccc(CN2Cc3ccc(OCC4CC4)cc3C(O)C2)cc1` (stereo partly shown) [Example 3.051] and `CCNC(=O)N[C@@H](C)c1ccc(CN2Cc3ccc(OCC4CC4)cc3C(O)C2)cc1` (stereo partly shown) [Example 5.006] are within 1.5-fold of each other in IC50: 604 nM for the first, 872 nM for the second.

`C[C@H](NC(=O)[C@@H]1CCC(=O)N1)c1ccc(CN2Cc3ccc(OCC4CC4)cc3C(F)C2)cc1` (stereo partly shown) [Example 3.052] and `C[C@H](NC(=O)[C@H]1CCC(=O)N1)c1ccc(CN2Cc3ccc(OCC4CC4)cc3C(F)C2)cc1` (stereo partly shown) [Example 3.053] are within 1.5-fold of each other in IC50: 153 nM for the first, 213 nM for the second.

Going from `C[C@H](NC(=O)C1CCC(=O)O1)c1ccc(CN2Cc3ccc(OCC4CC4)cc3C(F)C2)cc1` (stereo partly shown) [Example 3.054] to `C[C@H](NC(=O)C1CCC[C@@H]1N)c1ccc(CN2Cc3ccc(OCC4CC4)cc3C(F)C2)cc1` (stereo partly shown) [Example 3.056], the IC50 rises from 245 nM to 886 nM (3.6-fold). The first is the more potent here.

Going from `C[C@H](NC(=O)C1(N)CC1)c1ccc(CN2Cc3ccc(OCC4CC4)cc3C(F)C2)cc1` (stereo partly shown) [Example 3.055] to `C[C@H](NC(=O)C1(O)CC1)c1ccc(CN2Cc3ccc(OCC4CC4)cc3C(F)C2)cc1` (stereo partly shown) [Example 3.062], the IC50 rises from 55 nM to 102 nM (1.9-fold).

`C[C@H](NC(=O)C1COCCN1)c1ccc(CN2Cc3ccc(OCC4CC4)cc3C(F)C2)cc1` (stereo partly shown) [Example 3.057] and `C[C@H](NC(=O)CN)c1ccc(CN2Cc3ccc(OCC4CC4)cc3C(F)C2)cc1` (stereo partly shown) [Example 3.058] are within 1.5-fold of each other in IC50: 357 nM for the first, 266 nM for the second.

Compared with `C[C@H](NC(=O)CO)c1ccc(CN2Cc3ccc(OCC4CC4)cc3C(F)C2)cc1` (stereo partly shown) [Example 3.059], `C[C@H](O)C(=O)N[C@@H](C)c1ccc(CN2Cc3ccc(OCC4CC4)cc3C(F)C2)cc1` (stereo partly shown) [Example 3.060] is 2.8-fold higher in IC50: 47 nM for the first, 132 nM for the second. The first is the more potent here.

Going from `C[C@H](NC(=O)[C@@H](C)O)c1ccc(CN2Cc3ccc(OCC4CC4)cc3C(F)C2)cc1` (stereo partly shown) [Example 3.061] to `CCNC(=O)N[C@@H](C)c1ccc(CN2Cc3ccc(OCC4CC4)cc3C(F)C2)cc1` (stereo partly shown) [Example 5.007], the IC50 falls from 90 nM to 49 nM (1.8-fold). The second is the more potent here.

First: C[C@H](NC(=O)c1cn[nH]c1)c1ccc(CN2Cc3ccc(OCC4CC4)cc3C(O)C2)cc1 (stereo partly shown) [Example 3.063]
Second: C[C@H](NC(=O)N(C)C)c1ccc(CN2Cc3ccc(OCC4CC4)cc3C(O)C2)cc1 (stereo partly shown) [Example 5.005]
The IC50 of the first is 1.7-fold higher: 266 nM for the first, 155 nM for the second.

`CCC(=O)N[C@@H](C)c1ccc(CN2CCc3cc(OCC4CC4(F)F)ccc3C2)cc1` (stereo partly drawn) [Example 4.001, N—((S)-1-{4-[6-(2,2-Difluoro-cyclopropylmethoxy)-3,4-dihydro-1H-isoquinolin-2-ylmethyl]-phenyl}-ethyl)-propionamide] and `CC(=O)N[C@@H](C)c1ccc(CN2CCc3cc(OCC4CC4(F)F)ccc3C2)cc1` (stereo partly shown) [Example 7.003] are within 1.5-fold of each other in IC50: 37 nM for the first, 26 nM for the second.

Compared with `C[C@H](NC(=O)C(F)(F)F)c1ccc(CN2CCc3cc(OCC4CC4(F)F)ccc3C2)cc1` (stereo partly shown) [Example 4.002], `C[C@H](NC(=O)C(F)F)c1ccc(CN2CCc3cc(OCC4CC4(F)F)ccc3C2)cc1` (stereo partly shown) [Example 4.003] is 2.1-fold lower in IC50: 53 nM for the first, 25 nM for the second. The second is the more potent here.

`CCNC(=O)N[C@@H](C)c1ccc(CN2CCc3cc(OCC4CC4(F)F)ccc3C2)cc1` (stereo partly drawn) [Example 5.001, 1-((S)-1-{4-[6-(2,2-Difluoro-cyclopropylmethoxy)-3,4-dihydro-1H-isoquinolin-2-ylmethyl]-phenyl}-ethyl)-3-ethyl-urea] and `CNC(=O)N[C@@H](C)c1ccc(CN2CCc3cc(OCC4CC4(F)F)ccc3C2)cc1` (stereo partly shown) [Example 5.002] are within 1.5-fold of each other in IC50: 76 nM for the first, 59 nM for the second.

`C[C@H](NC(=O)N(C)C)c1ccc(CN2CCc3cc(OCC4CC4(F)F)ccc3C2)cc1` (stereo partly shown) [Example 5.003] and `C[C@H](NC(=O)N(C)C)c1ccc(CN2Cc3ccc(OCC4CC4(F)F)cc3C(F)C2)cc1` (stereo partly shown) [Example 5.004] are within 1.5-fold of each other in IC50: 20 nM for the first, 17 nM for the second.

First: C[C@H](NC(=O)N(C)C)c1ccc(CN2Cc3ccc(OCC4CC4(F)F)cc3C(O)C2)cc1 (stereo partly shown) [Example 6.002]
Second: CC(=O)N[C@@H](C)c1ccc(CN2CC(=O)c3cc(OCC4CC4(F)F)ccc3C2)cc1 (stereo partly shown) [Example 7.009]
The IC50 of the first is 3.5-fold higher: 173 nM for the first, 50 nM for the second.

`COc1cccc2c1CCN(Cc1ccc([C@H](C)NC(C)=O)cc1)C2` [Example 7.001, N-{(S)-1-[4-(5-Methoxy-3,4-dihydro-1H-isoquinolin-2-ylmethyl)-phenyl]-ethyl}-acetamide] and `CC(=O)N[C@@H](C)c1ccc(CN2CCc3c(Br)cccc3C2)cc1` [Example 7.004] are within 1.5-fold of each other in IC50: 192 nM for the first, 148 nM for the second.

Going from `CC(=O)N[C@@H](C)c1ccc(CN2CCc3c(cccc3C(F)(F)F)C2)cc1` [Example 7.002] to `CC(=O)N[C@@H](C)c1ccc(CN2CCc3c(cccc3OC3CCC3)C2)cc1` [Example 7.005], the IC50 falls from 104 nM to 58 nM (1.8-fold). The second is the more potent here.

First: C[C@H](NC(=O)C1CC1)c1ccc(CN2CC(=O)c3cc(OCC4CC4(F)F)ccc3C2)cc1 (stereo partly shown) [Example 7.006]
Second: CCC(=O)N[C@@H](C)c1ccc(CN2CC(=O)c3cc(OCC4CC4(F)F)ccc3C2)cc1 (stereo partly shown) [Example 7.007]
The IC50 of the first is 3-fold higher: 551 nM for the first, 185 nM for the second. The second is the more potent here.

First: CC(=O)N[C@@H](C)c1ccc(CN2CCc3c(cccc3C(=O)NCc3ccccc3)C2)cc1 [Example 8.001, 2-[4-((S)-1-Acetylamino-ethyl)-benzyl]-1,2,3,4-tetrahydro-isoquinoline-5-carboxylic acid benzylamide]
Second: COC(=O)C1c2ccc(OCC3CC3)cc2CCN1Cc1ccc([C@H](C)NC(C)=O)cc1 (stereo partly drawn) [Example 9.000, 2-[4-((S)-1-Acetylamino-ethyl)-benzyl]-6-cyclopropylmethoxy-1,2,3,4-tetrahydro-isoquinoline-1-carboxylic acid methyl ester]
The IC50 of the first is 3.8-fold higher: 715 nM for the first, 190 nM for the second.
